Assay results reported in patent US8791267B2, “Biaryl PDE4 inhibitors for treating inflammatory, cardiovascular and CNS disorders” (Decode Genetics EHF, priority 2007, dated 2014).
Where a name gives a salt, the structure may show the parent alone. Read-outs that look alike come from different tables or passages of the source.

Tests used:
PDE4 = PDE4 (Homo sapiens, UniProt Q08499); test: In-vitro assay for PDE4 enzymes, real-time enzyme-coupled spectrophotometric assay (Table 9); assay type: biochemical
Sequence of PDE4 (Q08499 whole entry): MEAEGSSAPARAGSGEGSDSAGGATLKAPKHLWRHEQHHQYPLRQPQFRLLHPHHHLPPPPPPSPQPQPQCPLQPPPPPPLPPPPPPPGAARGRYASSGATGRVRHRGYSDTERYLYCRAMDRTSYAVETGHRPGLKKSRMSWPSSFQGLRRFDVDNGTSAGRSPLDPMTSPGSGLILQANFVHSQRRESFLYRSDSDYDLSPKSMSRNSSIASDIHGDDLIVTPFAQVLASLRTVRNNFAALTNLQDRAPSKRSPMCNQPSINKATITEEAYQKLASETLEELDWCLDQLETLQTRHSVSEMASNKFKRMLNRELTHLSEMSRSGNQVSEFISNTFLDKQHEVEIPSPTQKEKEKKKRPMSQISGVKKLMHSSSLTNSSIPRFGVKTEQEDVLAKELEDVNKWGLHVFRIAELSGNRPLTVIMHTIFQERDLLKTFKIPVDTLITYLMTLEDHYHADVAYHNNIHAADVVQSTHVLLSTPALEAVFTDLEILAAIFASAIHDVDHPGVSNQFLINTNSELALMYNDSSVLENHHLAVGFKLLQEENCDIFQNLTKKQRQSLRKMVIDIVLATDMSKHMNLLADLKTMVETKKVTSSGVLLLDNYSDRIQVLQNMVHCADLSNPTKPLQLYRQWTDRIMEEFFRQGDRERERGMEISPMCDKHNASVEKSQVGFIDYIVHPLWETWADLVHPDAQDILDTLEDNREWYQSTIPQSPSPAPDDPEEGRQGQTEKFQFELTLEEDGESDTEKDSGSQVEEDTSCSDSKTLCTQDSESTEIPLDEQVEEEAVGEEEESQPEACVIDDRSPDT

PDE4B = PDE4B (Homo sapiens, UniProt Q07343); test: In-vitro assay for PDE4 enzymes, real-time enzyme-coupled spectrophotometric assay, PDE4B Activity (Table 10); assay type: biochemical
Sequence of PDE4B (Q07343 whole entry): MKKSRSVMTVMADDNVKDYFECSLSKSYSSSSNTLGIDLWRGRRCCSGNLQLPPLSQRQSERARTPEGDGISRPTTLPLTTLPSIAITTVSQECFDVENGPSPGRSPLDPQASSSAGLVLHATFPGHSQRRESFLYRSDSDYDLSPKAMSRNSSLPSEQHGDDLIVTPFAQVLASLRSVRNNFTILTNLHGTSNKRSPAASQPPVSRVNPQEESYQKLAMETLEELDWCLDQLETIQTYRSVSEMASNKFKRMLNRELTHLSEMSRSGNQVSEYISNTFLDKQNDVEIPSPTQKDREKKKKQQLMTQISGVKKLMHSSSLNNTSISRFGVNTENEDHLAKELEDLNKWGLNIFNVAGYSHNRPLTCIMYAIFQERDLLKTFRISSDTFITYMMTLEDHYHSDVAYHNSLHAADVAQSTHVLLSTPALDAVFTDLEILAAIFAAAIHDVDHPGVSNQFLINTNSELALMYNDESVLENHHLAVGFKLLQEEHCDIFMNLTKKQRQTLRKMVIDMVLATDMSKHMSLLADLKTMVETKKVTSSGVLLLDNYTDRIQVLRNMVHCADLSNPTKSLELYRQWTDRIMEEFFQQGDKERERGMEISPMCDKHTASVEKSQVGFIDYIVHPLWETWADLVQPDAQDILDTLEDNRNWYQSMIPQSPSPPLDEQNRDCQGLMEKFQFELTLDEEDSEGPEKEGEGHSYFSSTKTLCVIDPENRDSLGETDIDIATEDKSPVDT

[1] = human PDE4D, activity class, Table 9, read-out: hPDE4D
[2] = human PDE4B (hPDE4B), enzyme-coupled spectrophotometric assay, read-out: PDE4B Activity, hPDE4B

SMILES	IC50 (PDE4; [1]) [µM]	IC50 (PDE4B; [2]) [µM]	IC50 (PDE4) [µM]	IC50 (PDE4B) [µM]
COc1ccc(Sc2ccc(NC(N)=O)cc2)cc1-c1cccc(Cl)c1 [P-540, [4-(3′-Chloro-6-methoxy-biphenyl-3-ylsulfanyl)-phenyl]-urea]	< 5	< 5		
CCOc1ccc(Cc2ccc(NC(N)=O)cc2)cc1-c1cccc(Cl)c1 [P-541, [4-(3′-Chloro-6-ethoxy-biphenyl-3-ylmethyl)-phenyl]-urea]	< 5	< 5		
NCCOc1ccc(Cc2ccc(NC(N)=O)cc2)cc1-c1cccc(Cl)c1 [P-542, {4-[6-(2-Amino-ethoxy)-3′-chloro-biphenyl-3-ylmethyl]-phenyl}-urea]	20 to 40	21 to 40		
[2H]C([2H])(c1ccc(NC(N)=O)cc1)c1ccc(OC)c(-c2cccc(Cl)c2)c1 [P-547, {4-[Bisduetero-(3′-chloro-6-methoxy-biphenyl-3-yl)-methyl]-phenyl}-urea]	< 5	< 5		
COc1c(F)cc(Cc2ccc(NC(N)=O)cc2)cc1-c1cccc(Cl)c1 [P-550, [4-(3′-chloro-5-fluoro-6-methoxy-biphenyl-3-ylmethyl)-phenyl]-urea]	< 5	< 5		
NC(=O)Nc1ccc(Cc2ccc(OC3CSC3)c(-c3cccc(Cl)c3)c2)cc1 [P-553, {4-[3′-Chloro-6-(thietan-3-yloxy)-biphenyl-3-ylmethyl]-phenyl}-urea]	< 5	< 5		
NC(=O)Nc1ccc(Cc2ccc(OC3COC3)c(-c3cccc(Cl)c3)c2)cc1 [P-555, {4-[3′-Chloro-6-(oxetan-3-yloxy)-biphenyl-3-ylmethyl]-phenyl}-urea]	< 5	< 5		
Nc1ccc(Cc2ccc(OC3COC3)c(-c3cccc(Cl)c3)c2)cc1 [P-562, 4-[3′-Chloro-6-(oxetan-3-yloxy)-biphenyl-3-ylmethyl]-phenylamine]	< 5	< 5		
NC(=O)Nc1ccc(Cc2ccc(OC[C@@H]3CCCN3)c(-c3cccc(Cl)c3)c2)cc1 [P-563, {4-[3′-Chloro-6-((S)-1-pyrrolidin-2-ylmethoxy)-biphenyl-3-ylmethyl]-phenyl}-urea]	< 5	5 to 20		
COc1ccc(C2(c3ccc(F)cc3)CCN(C)CC2)cc1-c1cccc(Cl)c1 [P-564, 4-(3′-Chloro-6-methoxy-biphenyl-3-yl)-4-(4-fluoro-phenyl)-1-methyl-piperidine]	5 to 20	21 to 40		
CN1CC[C@@H](Oc2ccc(Cc3ccc(NC(N)=O)cc3)cc2-c2cccc(Cl)c2)C1 [P-565, {4-[3′-Chloro-6-((R)-1-methyl-pyrrolidin-3-yloxy)-biphenyl-3-ylmethyl]-phenyl}-urea]	5 to 20	21 to 40		
COc1ccc(Cc2ccc(NC(=O)NC3CCCO3)cc2)cc1-c1cccc(Cl)c1 (stereo not drawn) [P-566, 1-[4-(3′-Chloro-6-methoxy-biphenyl-3-ylmethyl)-phenyl]-3-(tetrahydro-furan-2-yl)-urea]	< 5	< 5		
COc1ccc(Cc2ccc(N3CCC3)nc2)cc1-c1cccc(Cl)c1 [P-568, 2-azetidin-1-yl-5-(3′-chloro-6-methoxy-biphenyl-3-ylmethyl)-pyridine]	< 5	< 5		
CCNC(=O)OCc1ccc(Cc2ccc(OC)c(-c3cccc(Cl)c3)c2)cn1 [P-570, Ethyl-carbamic acid 5-(3′-chloro-6-methoxy-biphenyl-3-ylmethyl)-pyridin-2-ylmethyl ester hydrochloride]	< 5	< 5		
COc1ccc(C(=O)c2ccc(N)cc2)cc1-c1ccc2c(c1)OCCO2 [P-578]	< 5	< 5		
COc1ccc(C(=O)c2ccc(N)cc2)cc1-c1cccc(F)c1 [P-579]	< 5	< 5		
[2H]C(O)(c1ccc([N+](=O)[O-])cc1)c1ccc(OC)c(-c2cccc(Cl)c2)c1 (stereo not drawn) [P-583]	< 5	5 to 20		
COc1ccc(Cc2ccc(CNC(=O)Oc3ccccc3)nc2)cc1-c1cccc(Cl)c1 [P-592, [5-(3′-Chloro-6-methoxy-biphenyl-3-ylmethyl)-pyridin-2-ylmethyl]-carbamic acid phenyl ester]			< 5	< 5
CNC(=O)NCc1ccc(Cc2ccc(OC)c(-c3cccc(Cl)c3)c2)cn1 [P-593, 1-[5-(3′-chloro-6-methoxy-biphenyl-3-ylmethyl)-pyridin-2-ylmethyl]-3-methyl-urea hydrochloride]	< 5	< 5		
NCc1ccc(Cc2ccc(OC(F)F)c(-c3cccc(Cl)c3)c2)cn1 [P-596, C-[5-(3′-Chloro-6-difluoromethoxy-biphenyl-3-ylmethyl)-pyridin-2-yl]-methylamine]	< 5	< 5		

Continued, in another order:

IC50 (PDE4; [1]) [µM]	IC50 (PDE4B; [2]) [µM]	SMILES	IC50 (PDE4) [µM]	IC50 (PDE4B) [µM]
< 5	< 5	[2H]C([2H])(c1ccc(NC(N)=O)cc1)c1ccc(OC)c(-c2cccc(Cl)c2)c1F [P-532, {4-[(3′-Chloro-2-fluoro-6-methoxy-biphenyl-3-yl)-bisduetero-methyl]-phenyl}-urea]		
< 5	< 5	CCNC(=O)N1CCC[C@@H]1COc1ccc(Cc2ccc(OC)c(-c3cccc(Cl)c3)c2F)cn1 [P-533, (R)-2-[5-(3′-Chloro-2-fluoro-6-methoxy-biphenyl-3-ylmethyl)-pyridin-2-yloxymethyl]-pyrrolidine-1-carboxylic acid ethylamide]		
< 5	< 5	COc1ccc(Cn2cnc(C(N)=O)c2)c(F)c1-c1cccc(Cl)c1 [P-534, 1-(3′-Chloro-2-fluoro-6-methoxy-biphenyl-3-ylmethyl)-1H-imidazole-4-carboxylic acid amide]		
< 5	< 5	COc1ccc(Cn2cncc2C(N)=O)c(F)c1-c1cccc(Cl)c1 [P-535, 3-(3′-Chloro-2-fluoro-6-methoxy-biphenyl-3-ylmethyl)-3H-imidazole-4-carboxylic acid amide]		
< 5	< 5	COc1ccc(Cn2cnc([N+](=O)[O-])c2)c(F)c1-c1cccc(Cl)c1 [P-536, 1-(3′-Chloro-2-fluoro-6-methoxy-biphenyl-3-ylmethyl)-4-nitro-1H-imidazole]		
< 5	21 to 40	[2H]C(O)(c1ccc(NC(N)=O)cc1)c1ccc(OC)c(-c2cccc(Cl)c2)c1F (stereo not drawn) [P-539, {4-[(3′-chloro-2-fluoro-6-methoxy-biphenyl-3-yl)-hydroxy-deutero-methyl]-phenyl}-urea]		
< 5	< 5	COc1ccc(Cn2cc(-c3cnccn3)cn2)c(F)c1-c1cccc(Cl)c1 [P-545, 2-[1-(3′-Chloro-2-fluoro-6-methoxy-biphenyl-3-ylmethyl)-1H-pyrazol-4-yl]-pyrazine]		
< 5	5 to 20	COc1ccc(Cn2ccnc2-c2cccnc2)c(F)c1-c1cccc(Cl)c1 [P-549, 3-[1-(3′-Chloro-2-fluoro-6-methoxy-biphenyl-3-ylmethyl)-1H-imidazol-2-yl]-pyridine hydrochloride salt]		
< 5	< 5	COc1ccc(Cn2ccnc2-c2cccs2)c(F)c1-c1cccc(Cl)c1 [P-559, 1-(3′-Chloro-2-fluoro-6-methoxy-biphenyl-3-ylmethyl)-2-thiophen-2-yl-1H-imidazole hydrochloride salt]		
< 5	< 5	COc1ccc(Cc2ccc(CO)nc2)cc1-c1cccc(Cl)c1 [P-567, [5-(3′-Chloro-6-methoxy-biphenyl-3-ylmethyl)-pyridin-2-yl]-methanol]		
< 5	< 5	COc1ccc(Cc2ccc(N3CCC3)nc2)c(F)c1-c1cccc(Cl)c1 [P-569, 2-Azetidin-1-yl-5-(3′-chloro-2-fluoro-6-methoxy-biphenyl-3-ylmethyl)-pyridine]		
< 5	< 5	COc1ccc(Cc2ccc(N3CCC3C(N)=O)nc2)c(F)c1-c1cccc(Cl)c1 (stereo not drawn) [P-571, 1-[5-(3′-chloro-2-fluoro-6-methoxy-biphenyl-3-ylmethyl)-pyridin-2-yl]-azetidine-2-carboxylic acid amide]		
< 5	< 5	COc1ccc(Cc2ccc(-n3ccnc3)nc2)c(F)c1-c1cccc(Cl)c1 [P-573, 5-(3′-chloro-2-fluoro-6-methoxy-biphenyl-3-ylmethyl)-2-imidazol-1-yl-pyridine]		
5 to 20	< 5	COc1ccc(COc2ccc([N+](=O)[O-])cc2)c(F)c1-c1cccc(Cl)c1 [P-575]		
< 5	< 5	COc1ccc(COc2ccc(N)cc2)c(F)c1-c1cccc(Cl)c1 [P-576]		
< 5	< 5	COc1ccc(Cc2ccc(N3CCCC3)nc2)c(F)c1-c1cccc(Cl)c1 [P-582, 5-(3′-Chloro-2-fluoro-6-methoxy-biphenyl-3-ylmethyl)-2-pyrrolidin-1-yl-pyridine]		
< 5	< 5	COc1ccc(COc2ccc(Cl)nc2)c(F)c1-c1cccc(Cl)c1 [P-585]		
< 5	< 5	COc1ccc(Cc2ccc(C(C)(C)O)nc2)c(F)c1-c1cccc(Cl)c1 [P-587, 2-[5-(3′-Chloro-2-fluoro-6-methoxy-biphenyl-3-ylmethyl)-pyridin-2-yl]-propan-2-ol hydrochloride]		
< 5	< 5	COc1ccc(Cc2ccc(OCCN(C)C)nc2)c(F)c1-c1cccc(Cl)c1 [P-588, {2-[5-(3′-Chloro-2-fluoro-6-methoxy-biphenyl-3-ylmethyl)-pyridin-2-yloxy]-ethyl}-dimethyl-amine]		
< 5	< 5	COc1ccc(Cc2ccc(C#N)nc2)cc1-c1cccc(Cl)c1 [P-590, 5-(3′-chloro-6-methoxy-biphenyl-3-ylmethyl)-pyridine-2-carbonitrile]		
< 5	< 5	COc1ccc(Cc2ccc(CN)nc2)cc1-c1cccc(Cl)c1 [P-591, C-[5-(3′-chloro-6-methoxy-biphenyl-3-ylmethyl)-pyridin-2-yl]-methylamine hydrochloride]		
< 5	< 5	COc1ccc(COc2ccc(NC(C)=O)cc2)c(F)c1-c1cccc(Cl)c1 [P-594]		
